Assay results as given in article PMC7932537, “Quantitative profiling of protease specificity” (PLoS Computational Biology, 2021).

Tests used:
MMP-2 = assay: Substrate phage display with NGS: relative probability (RP) of P3-P1' tetramer clusters; format: biochemical, human; details: for relative probability (RP) of matching tetramer: P3-P1' tetramer matching the MS detected MMP2 cleavage sequence, RP_above_4.5; for MMP2 relative probability (RP): MMP2 tetramers from unique substrates, unrounded values; for avg_RP: MMP2 - no binning
MMP-9 = assay: as above; format: biochemical, human; details: for corresponding MMP9 relative probability (RP): MMP2 tetramers from unique substrates, RP of same tetramer for MMP9
[1] = RP of the P3-P1' tetramer, MMP2 substrate phage display/NGS, tetramers of physiologic MEROPS substrates common to MMP2 and MMP9
[2] = RP of the P3-P1' tetramer, MMP9 substrate phage display/NGS, tetramers of physiologic MEROPS substrates common to MMP2 and MMP9
[3] = RP of the P3-P1' tetramer cluster contained in the hexamer, 200 nM MMP-2, 2 h, 37°C, two rounds of selection
[4] = MMP9, RP of the P3-P1' tetramer contained in the hexamer substrate (substrate phage display, NGS)
[5] = MMP2, RP of matching P3-P1' tetramer, common set of MMP2-9 selectome, RP above KL threshold
[6] = RP of matching tetramer, common MMP2-9 selectome
[7] = MMP9, RP of matching P3-P1' tetramer, common set of MMP2-9 selectome
[8] = MMP9, RP of the P3-P1' tetramer matching the MS detected cleavage, RP above 4.7, substrate phage display with NGS
[9] = RP of matching tetramer, common MMP2-9 selectome, RP above KL threshold
[10] = normalized RP of matching tetramer, unique part of MMP2 selectome
[11] = RP according to MMP2, P3-P1' tetramer of unique physiologic MMP2 substrates from MEROPS
[12] = RP according to MMP9, P3-P1' tetramer of unique physiologic MMP9 substrates from MEROPS

## QGAI
MMP-2; [1]
  relative probability (RP) (acc.to MMP2): 1.94
MMP-9; [2]
  relative probability (RP) (acc.to MMP9): 0

## VSALSS
MMP-2; [3]
  relative probability (RP): 32.3417
MMP-9; [4]
  relative probability (RP): 28.865

## TPAAMT
MMP-2; [3]
  relative probability (RP): 33.3115
MMP-9; [4]
  relative probability (RP): 48.1518

## VGGL
MMP-2; [5]
  relative probability (RP) (acc.to MMP2): 26.45
MMP-2
  relative probability (RP) of matching tetramer: 26.45
MMP-2; [6]
  relative probability (RP) (acc.to MMP2): 26.45
MMP-9; [7]
  relative probability (RP) (acc.to MMP9): 9.44
MMP-9; [8]
  relative probability (RP): 9.44
MMP-9; [9]
  relative probability (RP) (acc.to MMP9): 9.44

## APALWI
MMP-2; [3]
  relative probability (RP): 24.3606
MMP-9; [4]
  relative probability (RP): 27.3829

## MRPVGH
MMP-2; [3]
  relative probability (RP): 23.4937
MMP-9; [4]
  relative probability (RP): 20.8057

## INPQGL
MMP-2; [3]
  relative probability (RP): 33.5241
MMP-9; [4]
  relative probability (RP): 47.8621

## PPGK
MMP-2; [1]
  relative probability (RP) (acc.to MMP2): 0.14
MMP-9; [2]
  relative probability (RP) (acc.to MMP9): 0

## VRNI
MMP-2; [5]
  relative probability (RP) (acc.to MMP2): 25.21
MMP-2
  relative probability (RP) of matching tetramer: 25.21
MMP-2; [6]
  relative probability (RP) (acc.to MMP2): 25.21
MMP-9; [7]
  relative probability (RP) (acc.to MMP9): 38.1
MMP-9; [8]
  relative probability (RP): 38.1
MMP-9; [9]
  relative probability (RP) (acc.to MMP9): 38.1

## PESW
MMP-2
  relative probability (RP) of matching tetramer: 4.73
MMP-2; RP of matching tetramer, unique part of MMP2 selectome, RP above KL threshold
  relative probability (RP) (acc.to MMP2): 4.73
MMP-2; [10]
  normalized RP - MMP2: 0.1295
MMP-9; RP of matching tetramer, unique part of MMP2 selectome
  relative probability (RP) (acc.to MMP9): 1.77
MMP-9; [10]
  normalized RP - MMP9: 0.03379

## PGNR
MMP-2; [1]
  relative probability (RP) (acc.to MMP2): 0.12
MMP-9; [2]
  relative probability (RP) (acc.to MMP9): 0.05

## PSGK
MMP-2; [1]
  relative probability (RP) (acc.to MMP2): 2.08
MMP-9; [2]
  relative probability (RP) (acc.to MMP9): 1.08

## LAGL [P3-P1' tetramer cluster]
MMP-2
  MMP2 relative probability (RP): 32.2383
MMP-2; [11]
  Relative probability (RP) rank: 174
  relative probability (RP): 32.24
MMP-2; tetramer clusters unique to the MMP-2 selectome, MMP-2 RP
  relative_probability: 32.24
MMP-9
  corresponding MMP9 relative probability (RP): 1.413

## GSSY
MMP-2; [1]
  relative probability (RP) (acc.to MMP2): 0.73
MMP-9; [2]
  relative probability (RP) (acc.to MMP9): 0.37

## PVNV
MMP-2; [6]
  relative probability (RP) (acc.to MMP2): 19.63
MMP-9; [8]
  relative probability (RP): 24.66
MMP-9; [9]
  relative probability (RP) (acc.to MMP9): 24.66

## APGL
MMP-2
  MMP2 relative probability (RP): 7.849
MMP-2; [11]
  Relative probability (RP) rank: 5899
  relative probability (RP): 7.85
MMP-2; [1]
  relative probability (RP) (acc.to MMP2): 7.85
MMP-9
  corresponding MMP9 relative probability (RP): 3.776
MMP-9; [12]
  Relative probability (RP) rank: 6833
  relative probability (RP): 3.78
MMP-9; [2]
  relative probability (RP) (acc.to MMP9): 3.78

## NPMPIR
MMP-2; [3]
  relative probability (RP): 26.0717
MMP-9; [4]
  relative probability (RP): 45.0822

## PDGL
MMP-2; [6]
  relative probability (RP) (acc.to MMP2): 6.23
MMP-9; [8]
  relative probability (RP): 23.13
MMP-9; [9]
  relative probability (RP) (acc.to MMP9): 23.13

## KSPQAM
MMP-2; [3]
  relative probability (RP): 28.5429
MMP-9; [4]
  relative probability (RP): 47.1106

## PRKQ
MMP-2; MMP9 tetramers from unique substrates, RP of same tetramer for MMP2
  corresponding MMP2 relative probability (RP): 15.8695
MMP-9; MMP9 tetramers from unique substrates, unrounded values
  MMP9 relative probability (RP): 2.4663

## ARGI
MMP-2; average relative probability (RP) of the P3-P1' tetramer, redundant tetramers have been averaged out
  avg_RP: 21.2616
MMP-2; [6]
  relative probability (RP) (acc.to MMP2): 21.26
MMP-9; [8]
  relative probability (RP): 31.4
MMP-9; [9]
  relative probability (RP) (acc.to MMP9): 31.4

## GPAGIR
MMP-2; [3]
  relative probability (RP): 33.3207
MMP-9; [4]
  relative probability (RP): 45.1083

## NVARPM
MMP-2; [3]
  relative probability (RP): 21.8664
MMP-9; [4]
  relative probability (RP): 34.8794

## PKWM [P3-P1' tetramer cluster]
MMP-2; average relative probability of the tetramer, redundant tetramers averaged out
  avg_RP: 23.7433
MMP-9; tetramer probability in MMP9 set / naive library, 200 nM protease, 2 h, 37°C
  relative probability (RP): 51.5185

## GPRGLK
MMP-2; [3]
  relative probability (RP): 35.2511
MMP-9; [4]
  relative probability (RP): 47.3825
